These results are taken from patent US12661357B2, “Use of pyrido[1,2-a]pyrimidone analogue” (GUANGZHOU JOYO PHARMATECH CO., LTD, priority 2021, dated 2026).

Assay [1] concerns human-derived colorectal cancer CO-04-0032 subcutaneous xenograft tumor. Put plainly: In vivo efficacy, CO-04-0032 subcutaneous xenograft tumor model. Details: species or system BALB/c nude mice. Particulars: for Tumor volume (Day 28): mean ± SEM. The text has this:
Experimental purpose: Study the in vivo efficacy of the test drug on human-derived colorectal cancer CO-04-0032 subcutaneous xenograft tumor model in nude mice.
Experimental design: • (1) Animals: BALB/c nude mice, female, 6 weeks old, weighing 16-18 grams. […] CO-04-0032 was a PDX model of human-derived colon cancer independently developed by WuXi AppTec New Drug Development Co., Ltd. See Table 5 below for the experimental grouping and dosing regimen.

For assay [2], the system named is KYSE-150 esophageal cancer cells. In words: CTG cell proliferation IC50, KYSE-150. The settings on record: KYSE-150 cells, read-out: Absolute IC50. It counts as cell-based. From the text: (§1) • 2). IC50 value: the concentration of inhibitor when 50% inhibitory effect was achieved; • 3). CAL-27 and RPMI 2650: head and neck cancer cell models; HepG2: hepatocellular cancer cells. CAL-27, RPMI 2650 and HepG2 cells were purchased from ATCC, where ATCC® No. was CRL-2095™, CCL-30™, HB-8065™, respectively. • 4). Both KYSE-150 and TE-1 were esophageal cancer cell models. The KYSE-150 cell line was purchased from DSMZ (German Collection of Microorganisms and Cell Cultures), and the DSMZ No. was ACC375; the TE-1 cell line was purchased from National Collection of Authenticated Cell Cultures, catalog number: TCHu89. • 5). RPMI 1640/F12 medium was a 1:1 mixture of RPMI 1640 medium and F12 medium. • 6). The percentages in 10% FBS in Table 1 and Table 2 were volume percentages. (2) Reagents • 1). FBS (fetal bovine serum) (purchased from ExCell, product number: FND500); • 2). MEM medium (purchased from Hyclone, product number: SH30024.01; • 3). DMEM medium (purchased from Gibco, product number: C11995500BT); • 4). MEM NEAA (purchased from Gibco, product number: 11140-050); • 5). RPMI1640 Culture medium (purchased from Gibco, product number: 11875-119); • 6). F12 Culture medium (purchased from Gibco, product number: 11765-054); (3) Test Article and Positive Control Article
(§2) 2. CTG Method was Used to Determine the Cell Proliferation IC50 of the Compound
(§3) • Step 1: Cells in exponential growth phase were harvested, and viable cells were counted with a Vi-Cell XR cytometer. The cell suspension was adjusted to an appropriate concentration with medium. 90 μL of cell suspension was added to each well of a 96-well cell culture plate, and the final cell concentration was 1500-6000 cells/well. • Step 2: The initial concentration of administration of compound I is 3 μM, and the initial concentration of administration of the control drug Alpelisib and Cisplatin was 10 μM, serially diluted 3-fold, a total of 9 concentration gradients and a DMSO control, the final concentration of DMSO in each well was 0.1%, placed in a 37° C., 5% CO2 incubator for 72 hours. • Step 3: After 72 hours of drug treatment, 50 μL (½ culture volume) CTG solution that was melted and equilibrated to room temperature was added to each well according to the CTG operation instructions. […] After 10 minutes, the fluorescence signal value was measured with an Envision2104 plate reader. […]
(§4) Cell survival rate was calculated using the formula: Vsample/Vvehicle control×100%. Where, Vsample was the reading of the drug treatment group, and Vvehicle control was the average value of the solvent control group. GraphPad Prism 5.0 software was used, and a S-type dosage-survival rate curve was drawn using a nonlinear regression model and IC50 value was calculated.

In assay [3] the test system is TE-1 esophageal cancer cells. In words: CTG cell proliferation IC50, TE-1. It counts as cell-based. The settings on record: TE-1 cells, read-out: Absolute IC50.
Source text: as §1, §2, §3, §4

In assay [4] the test system is RPMI2650 head and neck cancer cells. In words: CTG cell proliferation IC50, RPMI 2650. It counts as cell-based. The settings on record: 72 hours, read-out: Absolute IC50.
Source text: as §1, §2
(§5) • Step 1: Cells in exponential growth phase were harvested, and viable cells were counted with a Vi-Cell XR cytometer. The cell suspension was adjusted to an appropriate concentration with medium. […] After 10 minutes, the fluorescence signal value was measured with an Envision2104 plate reader. […]
as §4

Assay [5] concerns CAL-27 head and neck cancer cells. In words: CTG cell proliferation IC50, CAL-27. It is filed as cell-based. Particulars: CAL-27 cells, 72 hours, read-out: Absolute IC50.
Source text: as §1, §2, §5, §4

Setting [6] is: 20 mg/kg, vein, once a week, day 28.
The mark [7] stands for this setting: 5 mg/kg, oral, once a day for 28 days.

Structures are written as SMILES. Read-outs that look alike come from different tables or passages of the source. Where only a bound is given, the exact number is not on record here.

By T/C is commonly meant the result in the treated group divided by that in the control group, in per cent. In general, TGI refers to the reduction of tumour growth relative to the control group. For the molecule `CN(C)C1CCN(C(=O)c2ccc(NC(=O)Nc3ccc(-c4nc(N5CCOCC5)nc(N5CCOCC5)n4)cc3)cc2)CC1` [PF05212384, reference compound], in assay [1] (setting [6]), the T/C stood at 68%, the TGI was determined as 44% and the “Tumor volume (Day 28)” value is 971 ± 249 mm^3.

As to `CO[C@H]1C[C@@H]2CC[C@@H](C)[C@@](O)(O2)C(=O)C(=O)N2CCCC[C@H]2C(=O)O[C@H]([C@H](C)C[C@@H]2CC[C@@H](OCCO)[C@H](OC)C2)CC(=O)[C@H](C)/C=C(\C)[C@@H](O)[C@@H](OC)C(=O)[C@H](C)C[C@H](C)/C=C/C=C/C=C/1C` [Everolimus, reference compound], in assay [1] (setting [7]), the T/C amounted to 42%, the tumour growth inhibition (TGI) was 60% and the “Tumor volume (Day 28)” value was found to be 739 ± 206 mm^3.

One may read the IC50 as the midpoint of a concentration-inhibition curve. In the case of `Cc1nc(NC(=O)N2CCC[C@H]2C(N)=O)sc1-c1ccnc(C(C)(C)C(F)(F)F)c1` [Alpelisib, reference compound], the IC50 in assay [2] (Homo sapiens, KYSE-150, 72 h) is over 2000 nM; in assay [2] (72 hours) it was 2110 nM; in assay [3] (Homo sapiens, TE-1, 72 h), over 2000 nM; in assay [3] (72 hours) it was over 3000 nM.

As for `N.N.[Cl][Pt][Cl]` [Cisplatin, reference compound], the values for the half-inhibitory concentration (IC50) in assay [4] and in assay [5] were 4250 nM and 4370 nM, respectively.
